Source: patent US6410575B1, “Viral treatment” (The Procter & Gamble Company, priority 1999, dated 2002)
≈ marks a conversion by molar mass, not a printed value. Where “and” joins values, the source holds several entries; their conditions need not be identical. Equal values may be shown once.

What was measured:
HIV-1 integrase = HIV-1 integrase (Human immunodeficiency virus type 1 group M subtype B, UniProt P04585); assay: Integrase inhibition assay (autoradiography); format: biochemical
Text: A biochemical integrase assay described by Craigie et at (HIV, vol. 2: A practical Approach) Biochemistry, Molecular Biology and Drug Discovery, Ed. J. Kam 1995) to screen agents for their ability to inhibit HIV-1 integrase can be used. In this system, a kinased oligonucleotide serves as the target of 3′ processing and the subsequent strand transfer reaction. The 3′ processing reaction involves the removal of 2 nucleotides from the 3′ ends of the substrate. This is followed by the strand transfer reaction in which the 3′ ends are joined to the exposed 5′ ends. The 20 μl reaction mixture contains 25 mM MOPS (pH 7.2), […] BSA, 10 mM β-mercaptoethanol, 10% glycerol; 7.5 mM MnCl2, 25 nM (7 ng) substrate (Oligo's Etc., Wilsonville, Oreg.) and 200 nM (128 ng) integrase (NIAID AIDS Research and Reference Reagent Program, Bethesda, Md.). The reaction proceeds at 37° C. for 1-2 hours and is terminated by the addition of 20 μl of sequencing stop solution (USB Amersham, Arlington Heights, Ill.). The reaction products are visualized by autoradiography following electrophoresis in 15% polyacrylamide 6M Urea gel. The substrate migrates as a 30 mer, the product of 3′ processing migrates as an N-2 band and the strand transfer products migrate more slowly at various sizes larger than the substrate.
The mechanism of action of the (5-aryl-1,2,4-thiadiazol)-3-yl thiourea derivatives or (5-aryl-1,2,4-thiadizol)-3-yl urea derivatives is not known.

BVDV = BVDV testing in vitro; format: cell-based, bovine diarrhea virus
Text: DMSO had no effect, as expected.
BVDV is a bovine diarrhea virus and is a well known surrogate virus for hepatitis C which cannot be cultured in vitro.

[1] = tested on: Human Herpes Virus 8 (HHV8); assay: Kaposi's sarcoma / HHV8 DNA copy number in TPA-induced BCBL-1 cells; format: cell-based
Experimental: The DNA copy number and the toxicity value were measured and compared with Cidofovir. Kaposi's sarcoma (KS) is a cancer that is often found in people with weak immune systems, such as those taking immunosuppressants or those with AIDS. The exact nature of the disease is uncertain, but it is almost always found in association with HHV8.

[2] = tested on: U937KN1272, a protease resistant strain; assay: Long term in vitro study, U937KN1272; format: cell-based, HIV
Experimental: Toxicity quantification involves the XTT-based evaluation. Assays were designed to characterize the long term effects of the compounds on virus production and to characterize the longer term effects of the compounds on virus production from chronically HIV infected cells.
CEM-SS cells chronically infected with HIV isolate, for example SKI (CEM-SKI) are cultured in RPMI1640 tissue culture medium supplemented with 10% fetal bovine serum and antibiotics. […] CEM-SKI or other infected cells with no added drug are used as the control cells.
Cells are allowed to grow to a density of approximately 1×10^6 cells/ml and are then passaged at a 1:10 dilution. […] The drug concentration in the flask is then increased two-fold and the cells maintained as above.
The cell populations contain integrated copies of the HIV genome and constitutively produce HIV at relatively high levels or are latently infected and only produce virus after stimulation with phorbol esters, tumor necrosis factor or IL6(U1 and ACH2). Reductions in virus products were observed when quantifying supernatant reverse transcriptase activity.
Similar results are obtained with U937KN1272, a protease resistant strain, reported below.

HIV-2 virus, CEMROD = assay: In vitro screening test against HIV-2, reverse transcriptase activity; format: cell-based; parameters: Reverse Transcriptase Activity, sample / Reverse Transcriptase Activity, average: unit not given here
Text: The results of one test are shown below

Cryptococcus neoformans = assay: Anti-fungal activity, MFC (NCCLS M-27A based); format: cell-based
Experimental: It was active against Cryptococcus neoformans and Curvularia lunata. The cidal activity for the C. neoformans is high enough that it is clear […] against this yeast. This test was conducted using a method based upon NCCLS reference method M-27A published in 1997. Solvent, medium and growth controls were set-up with the tests. Once these were read to validate the test performance, the QC fungi were read to insure they had expected results. These steps validated the test system. DMSO was used as a drug-chemical solvent. […] The 90% cut-off is necessary for azoles, which are static and not cidal. The […] or cidal level, was determined by sub-culturing a sample from each tube showing no growth.

NC(=S)Nc1nsc(-c2ccccc2)n1
EC50 (HIV-1 integrase): > 423 µM
activity as an integrase inhibitor (HIV-1 integrase): did not show activity
remaining activity at 1 µg/mL (HIV-1 integrase; 1 μg/ml, read-out: HIV-1 integrase inhibition, % no drug control): 108%
remaining activity at 10 µg/mL (HIV-1 integrase; 10 μg/ml, read-out: HIV-1 integrase inhibition, % no drug control): 117%
remaining activity at 100 µg/mL (HIV-1 integrase; 100 μg/ml, read-out: HIV-1 integrase inhibition, % no drug control): 106%
remaining activity at 0.1 µg/mL (HIV-1 integrase; read-out: HIV-1 integrase inhibition, % no drug control): 98.8%
Antiviral Index (AI), TC50/IC50 (BVDV; first test): greater than 4000
Antiviral Index (AI), TC50/IC50 (BVDV; second screening test): 1000.4
% virus control ([1]; 0.64 μM): 79.1%
DNA Copy Number (per 3 μl), average ([1]; 0.64 μM): 12198.1 per 3 μl
DNA Copy Number (per 3 μl), sample ([1]; 0.64 μM): 1200.5 per 3 μl and 1258.4 per 3 μl and 1198.4 per 3 μl
% virus control ([1]; 2 μM): 71.2%
DNA Copy Number (per 3 μl), average ([1]; 2 μM): 1096.9 per 3 μl
DNA Copy Number (per 3 μl), sample ([1]; 2 μM): 1100.2 per 3 μl and 1000.7 per 3 μl and 1189.7 per 3 μl
% virus control ([1]; 6.4 μM): 67.0%
DNA Copy Number (per 3 μl), average ([1]; 6.4 μM): 1032.6 per 3 μl
DNA Copy Number (per 3 μl), sample ([1]; 6.4 μM): 1003.5 per 3 μl and 1084.5 per 3 μl and 1009.7 per 3 μl
% virus control ([1]; 20 μM): 55.8%
DNA Copy Number (per 3 μl), average ([1]; 20 μM): 860.2 per 3 μl
DNA Copy Number (per 3 μl), sample ([1]; 20 μM): 747.8 per 3 μl and 841.6 per 3 μl and 991.2 per 3 μl
% virus control ([1]; 64 μM): 48.9%
DNA Copy Number (per 3 μl), average ([1]; 64 μM): 753.0 per 3 μl
% virus control ([1]; 200 μM): 26.6%
DNA Copy Number (per 3 μl), average ([1]; 200 μM): 410.7 per 3 μl
TI ([1]; HHV8, BCBL-1 cells): TI = 1.8
IC50 ([1]; Human gammaherpesvirus 8, BCBL1, HHV8 DNA copy number, BCBL-1 cells): 56.8 µM
virus production (supernatant reverse transcriptase activity) ([2]; U937KN1272, 7 μg/ml, day 4): 119839
virus production (supernatant reverse transcriptase activity) ([2]; U937KN1272, 7 μg/ml, day 11): 78089
virus production (supernatant reverse transcriptase activity) ([2]; U937KN1272, 7 μg/ml, day 18): 74773
virus production (supernatant reverse transcriptase activity) ([2]; U937KN1272, 7 μg/ml, day 25): 78997
virus production (supernatant reverse transcriptase activity) ([2]; U937KN1272, 7 μg/ml, day 32): 31156
virus production (supernatant reverse transcriptase activity) ([2]; U937KN1272, 7 μg/ml, day 39): 41326
virus production (supernatant reverse transcriptase activity) ([2]; U937KN1272, 7 μg/ml, day 46): 31024
virus production (supernatant reverse transcriptase activity) ([2]; U937KN1272, 7 μg/ml, day 53): 31209
virus production (supernatant reverse transcriptase activity) ([2]; U937KN1272, 15 μg/ml, day 4): 103341
virus production (supernatant reverse transcriptase activity) ([2]; U937KN1272, 15 μg/ml, day 11): 80161
virus production (supernatant reverse transcriptase activity) ([2]; U937KN1272, 15 μg/ml, day 18): 73939
virus production (supernatant reverse transcriptase activity) ([2]; U937KN1272, 15 μg/ml, day 25): 74262
virus production (supernatant reverse transcriptase activity) ([2]; U937KN1272, 15 μg/ml, day 32): 26305
virus production (supernatant reverse transcriptase activity) ([2]; U937KN1272, 15 μg/ml, day 39): 28635
virus production (supernatant reverse transcriptase activity) ([2]; U937KN1272, 15 μg/ml, day 46): 18073
virus production (supernatant reverse transcriptase activity) ([2]; U937KN1272, 15 μg/ml, day 53): 22110
virus production (supernatant reverse transcriptase activity) ([2]; U937KN1272, 30 μg/ml, day 4): 114070
virus production (supernatant reverse transcriptase activity) ([2]; U937KN1272, 30 μg/ml, day 11): 89087
virus production (supernatant reverse transcriptase activity) ([2]; U937KN1272, 30 μg/ml, day 18): 72398
virus production (supernatant reverse transcriptase activity) ([2]; U937KN1272, 30 μg/ml, day 25): 38006
virus production (supernatant reverse transcriptase activity) ([2]; U937KN1272, 30 μg/ml, day 32): 6908
virus production (supernatant reverse transcriptase activity) ([2]; U937KN1272, 30 μg/ml, day 39): 14779
virus production (supernatant reverse transcriptase activity) ([2]; U937KN1272, 30 μg/ml, day 46): 5663
virus production (supernatant reverse transcriptase activity) ([2]; U937KN1272, 30 μg/ml, day 53): 10534
% virus control (HIV-2 virus, CEMROD; 0.32 μg/ml): 113.2%
Reverse Transcriptase Activity, average (HIV-2 virus, CEMROD; 0.32 μg/ml): 5451
Reverse Transcriptase Activity, sample (HIV-2 virus, CEMROD; 0.32 μg/ml): 4664 and 6972 and 4717
% virus control (HIV-2 virus, CEMROD; 1 μg/ml): 95.5%
Reverse Transcriptase Activity, average (HIV-2 virus, CEMROD; 1 μg/ml): 4601
Reverse Transcriptase Activity, sample (HIV-2 virus, CEMROD; 1 μg/ml): 4005 and 4407 and 5392
% virus control (HIV-2 virus, CEMROD; 1.0 μg/ml): 66.6%
Reverse Transcriptase Activity, average (HIV-2 virus, CEMROD; 1.0 μg/ml): 3208
Reverse Transcriptase Activity, sample (HIV-2 virus, CEMROD; 1.0 μg/ml): 3001 and 3077 and 3547
% virus control (HIV-2 virus, CEMROD; 3.2 μg/ml): 74.9%
Reverse Transcriptase Activity, average (HIV-2 virus, CEMROD; 3.2 μg/ml): 3606
Reverse Transcriptase Activity, sample (HIV-2 virus, CEMROD; 3.2 μg/ml): 4166 and 3318 and 3334
% virus control (HIV-2 virus, CEMROD; 32 μg/ml): 36.4%
Reverse Transcriptase Activity, average (HIV-2 virus, CEMROD; 32 μg/ml): 1753
Reverse Transcriptase Activity, sample (HIV-2 virus, CEMROD; 32 μg/ml): 1832 and 1550 and 1876
% virus control (HIV-2 virus, CEMROD; 100 μg/ml): 1.2%
Reverse Transcriptase Activity, average (HIV-2 virus, CEMROD; 100 μg/ml): 57
Reverse Transcriptase Activity, sample (HIV-2 virus, CEMROD; 100 μg/ml): 72 and 48 and 52
anti-fungal activity in vitro (Cryptococcus neoformans): active
MFC (Cryptococcus neoformans; cidal level, read-out: MFC): 32 µg/mL (≈ 135 µM)
